This note sets out measurements from article PMC12325182, “Discovery of novel and potent celastrol derivatives as PRDX1 inhibitors for cancer therapy through structure-based virtual screening” (Frontiers in Pharmacology, 2025).

Each structure is given as a SMILES string. Read-outs that look alike come from different tables or passages of the source.

In one test the test system is A549 lung cancer cells. The experiment in a line: MTT assay. Type of test: cell-based. Conditions: Homo sapiens, read-out: IC50 (μM) A549. The method, then: (§1) Cells were seeded in 96-well plates at 5 ×10^4 cells/well and cultured overnight at 37°C under 5% CO2. After medium removal, cells were treated with serially diluted compounds (0.04–163.84 μM) or vehicle control (0.1% DMSO) and incubated for 72 h. Subsequently, 20 μL of MTT solution (5 mg/mL) was added to each well, and incubation was continued for 4 h. Add 150 μL of DMSO and shake for 10 min to fully dissolve the crystal. Finally, the absorbance was measured at 570 nm using a microplate reader. Cell viability was calculated as (ODcompound - ODblank)/(ODvehicle - ODblank) × 100%. The half inhibitory concentration (IC50) was calculated from the dose-response curve using Prism 8.0 software. Three independent replicate experiments were performed.

Test [1] relates to BEAS-2B normal lung cells. The experiment in a line: MTT assay. Type of test: cell-based. Conditions: Homo sapiens, 72 h. On the procedure:
as §1
(Tetrazolium dyes change colour on reduction, which living cells bring about.)

Test [2] has as its target T1, PRDX1 (Homo sapiens, UniProt Q06830).
T1 sequence (Q06830 1-199): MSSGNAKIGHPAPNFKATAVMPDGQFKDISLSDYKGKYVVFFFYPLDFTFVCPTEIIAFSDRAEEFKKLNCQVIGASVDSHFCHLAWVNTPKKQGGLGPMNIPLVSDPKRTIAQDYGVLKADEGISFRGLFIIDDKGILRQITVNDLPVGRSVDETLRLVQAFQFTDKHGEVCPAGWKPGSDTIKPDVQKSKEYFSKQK
Put plainly: PRDX1 inhibition assay. Type of test: biochemical. On the procedure: The cells were purchased from the American Type Culture Collection (ATCC) (Manassas, VA, United States). Cells were cultured in RPMI-1640 medium supplemented with 10% FBS, 50 units/mL penicillin, and 50 μg/mL streptomycin, and maintained at 37°C in a 5% CO2 humidified culture environment. CPs 1-5 were purchased from WuXi AppTec. Human PRDX1 proteins were purchased from Abcam (Cambridge, MA, United States).
First, […] buffer (20 mM HEPES, 5 mM EDTA, 5 μM cofactor A, 2 μM cofactor B, and 300 μM NADPH) was added to a 96-well plate. The test compounds at the designated concentration (0.02–2 nM, with 1.5-fold dilution) were incubated with PRDX1 at 37°C for 25 min, and then the co-incubated mixture was added to each well to a final concentration of 200 nM PRDX1. Finally, 200 μM H2O2 was added to each well to initiate the enzyme reaction cycle. The oxidation of NADPH was determined by the absorption value at 340 nm. Read plate values for 90 s for one cycle and repeat for 20 cycles. The positive control (celastrol, concentrations 0.06–64 μM) was tested in parallel under identical experimental conditions. Three independent replicate experiments were performed.

Test [3] concerns MCF-7 (breast adenocarcinoma cells). Put plainly: MTT assay. Type of test: cell-based. Conditions: Homo sapiens, MCF7, 72 h, read-out: IC50 (μM) MCF-7. On the procedure: as §1
A further test relates to LO2 (normal liver cells). Put plainly: MTT assay. Type of test: cell-based. Conditions: Homo sapiens, 72 h, read-out: IC50 (μM) LO2. The method, then:
as §1

Test [4] concerns HepG2 (hepatocellular carcinoma cells). The experiment in a line: MTT assay. Type of test: cell-based. Conditions: Homo sapiens, HepG2, 72 h, read-out: IC50 (μM) HepG2. On the procedure:
as §1

Test [5] has as its system HaCaT (immortalised keratinocytes). Put plainly: MTT assay. Type of test: cell-based. Conditions: Homo sapiens, 72 h, normal cells, mean ± SD, n = 3. The method, then: as §1
Test [6] relates to HEK293 (embryonic kidney cells). Put plainly: MTT assay. Type of test: cell-based. Conditions: Homo sapiens, HEK293, 72 h, read-out: IC50 (μM) HEK293. On the procedure: as §1
Test [7] deals with T1, PRDX1. The experiment in a line: MST assay. Type of test: binding. The method, then:
The MST assays were carried out in a buffer composed of 50 mM Tris, 200 mM NaCl, and 0.1% (v/v) TWEEN20. PRDX1 was tagged with the MO-L011 protein labeling kit (RED-NHS second Generation). The diluted compounds were combined with the tagged PRDX1 protein and allowed to stand at room temperature for 5 minutes. Subsequently, the reaction mixture was loaded into capillaries, and measurements were taken using a Monolith NT.115 instrument.

Where [8] appears, read: A549, MTT, 72 h, mean ± SD, n = 3.
[9] abbreviates: MTT, normal lung cells, mean ± SD, n = 3, read-out: IC50 (μM) BEAS-2B.
Setting [10] is: mean ± SD, n = 3, read-out: PRDX1 (IC50).

With `CC1=C(CC(=O)/C=C/C2=CC(CO)=CC2)C(=O)C=C2C1=CC=C1[C@@]2(C)CC[C@@]2(C)C3C[C@](C)(C(=O)NCc4cccc(C(O)C(O)O)c4)CC[C@]3(C)CC[C@]12C` (stereo partly drawn) [CP2], the figures for the IC50 (with A549 lung cancer cells (setting [8]); in [1] (setting [9]); on PRDX1 [2] (setting [10])) were 0.46 ± 0.03 µM, > 100 µM and 0.17 ± 0.02 nM, respectively.
For `Cc1ncc(CNC(=O)[C@]2(C)CC[C@]3(C)CC[C@]4(C)C5=CC=C6C=C(CC(=O)/C=C/c7cccc(CO)c7)C(=O)C=C6C5CC[C@@]4(C)C3C2)nc1C(C)C(O)O` (stereo partly drawn) [CP3], the half-inhibitory concentration (IC50) (usually the concentration that inhibits the measured activity by half) in the test with A549 lung cancer cells (setting [8]) was 0.57 ± 0.05 µM; in test [1] (setting [9]), > 100 µM; at PRDX1 [2] (setting [10]), 0.25 ± 0.01 nM.
As for `C[C@@]1(C(=O)NCc2cccc(CC(O)O)c2)CC[C@]2(C)CC[C@]3(C)C4=CC=C5C=C(CC(=O)/C=C/c6cccc(CO)c6)C(=O)C=C5C4CC[C@@]3(C)C2C1` (stereo partly drawn) [CP4], the half-maximal inhibitory concentration (IC50) with A549 lung cancer cells (setting [8]) is 0.63 ± 0.04 µM; in test [1] (setting [9]), > 100 µM; at PRDX1 [2] (setting [10]), 0.31 ± 0.03 nM.
Taken in the same sequence, the figures for `C=C(/C=C(C)\C=C\C(=O)CC1=CC2=CC=C3C(CC[C@@]4(C)C5C[C@](C)(C(=O)NCc6cccc(CC(O)O)c6)CC[C@]5(C)CC[C@]34C)C2=CC1=O)CO` (stereo partly drawn) [CP5] were 0.68 ± 0.06 µM, > 100 µM and 0.36 ± 0.02 nM.
In the case of `CC1=C(O)C(=O)C=C2C1=CC=C1[C@@]2(C)CC[C@@]2(C)[C@@H]3C[C@](C)(C(=O)O)CC[C@]3(C)CC[C@]12C` [Celastrol, celastrol], the IC50 in the test on A549 lung cancer cells (A549, 72 h) came to 1.24 ± 0.08 µM; in test [3] it was 1.31 ± 0.06 µM; in [1] (read-out: IC50 (μM) BEAS-2B), 0.45 ± 0.03 µM; in the test on LO2 (normal liver cells) it was 24 ± 0.69 µM; in test [4] it was 1.28 ± 0.05 µM; in test [5], 17.4 ± 0.54 µM. Also, the IC50 in test [6] was 5.76 ± 0.12 µM; against PRDX1 [2], 510 ± 40 nM. The Kd – broadly, the equilibrium constant for the complex coming apart – on PRDX1 [7] stood at 320 ± 20 nM.
